Experimental findings from patent US8742123B2, “HIV integrase inhibitors from pyridoxine” (TaiMed Biologics, Inc., priority 2008, dated 2014) are described below.

Data set [1] can be described thus: human liver microsome stability. Type of data set: in vitro ADME. To be noted: pH 7.4, 1 μM compound. How it is done:
After pre-incubation, the assay was started by the addition of 1 μM of compound. Samples were taken after 0, 15, 30, 60, 90 and 120 minutes of incubation (Fisher M B, Drug Metabolism and Disposition, 2000, 28, 560-566). GraphPad Prism software was used for data analysis. The results, showing that the compounds of the invention are metabolically stable in Human liver microsomes, are provided in Table 7 below.
(Liver microsomes are a subcellular fraction often used to study metabolism.)

The nature of data set [2]: protein binding by Rapid Equilibrium Dialysis (RED), 10% FBS-RPMI. In kind it is in vitro ADME. To be noted: bovine, 37° C. How it is done:
(§1) Protein binding was tested by Rapid Equilibrium Dialysis (RED) method (The RED (Rapid equilibrium Dialysis) Device inserts instruction manual. Pierce, Rockford Ill.). […] The red chamber was loaded with 0.3 mL of samples containing compounds. The white chamber contained 0.5 mL of D-PBS buffer only. The plate was incubated at 37° C. while shaking at 150 rpm for 5 hours. Aliquots from both chambers were analyzed by LC/MS/MS. The multi-cycle antiviral activity in the absence and presence of human serum was determined by p24 ELISA measurement after 6 days of NL4.3 virus infection.
For orientation: In equilibrium dialysis only unbound substance equilibrates across the membrane.

A short description of data set [3]: protein binding by Rapid Equilibrium Dialysis (RED), human serum. In kind it is in vitro ADME. To be noted: 37° C., 100% HS. How it is done: as §1
A further data set deals with NL4.3 virus. In words: multi-cycle antiviral activity in absence and presence of human serum, p24 ELISA. To be noted: for EC50: Human immunodeficiency virus 1, 144 h. In kind it is cell-based, HIV-1. On the procedure: as §1
A general note: An ELISA detects its analyte on a solid surface through an enzyme-linked reagent.

For the next data set, the system named is wild type NL-4.3. The experiment in a line: multi-cycle infection assay in MT-4 cells (MTT cytoprotection). In kind it is cell-based, HIV-1. To be noted: Human immunodeficiency virus 1, MT4, 144 h, read-out: EC50 (nM) multi-cycle. How it is done: The antiviral efficacies of the integrase inhibitor compounds of the invention were evaluated based on EC50 measures obtained from two different in vitro HIV infection assay using cultured MT-4 cells: (1) a multi-cycle infection where cells were infected with wild type NL-4.3) and (2) a single-cycle infection where the cells were infected with a luciferase-bearing, envelope defective (env-) NL-4.3 virus pseudotyped with HIV-1 env (HXBc2.
The incubation period for the multi-cycle infection assay was 6 days. Cell viability (cytoprotection) and EC50 were determined using the colorimetric MTT assay (A. J. Japour et al, Antimicrobial Agents and Chemotherapy, 37, 1095-1101, 1993 and R. Pauwels et al. Journal of Virological Methods, 20, 309-321, 1988).

Data set [4] can be described thus: pharmacokinetic (PK) profile in rats. Type of data set: in vivo. To be noted: female Sprague-Dawley rats, 5 mg/kg intravenously, 50 mg/kg orally, plasma LC/MS/MS. On the procedure:
Female Sprague-Dawley rats were randomly selected and assigned to two groups. A group of 13 rats were administered 5 mg/kg of compound 2 intravenously. A second group of 8 rats were administered 50 mg/kg of compound 2 orally. Following the dosing, blood was collected at 7 different time points. Plasma samples obtained from the blood samples were analyzed by LC/MS/MS and the bioavailability of compound 2 was determined.

Data set [5] concerns the target T1, recombinant HIV-1 integrase (Human immunodeficiency virus type 1 group M subtype B, UniProt P12497).
T1 construct: Recombinant integrase (250 ng/well) was assembled onto the immobilized donor oligonucleotide
The experiment in a line: integrase strand transfer assay. To be noted: compounds added after assembly, 10% DMSO, read-out: ST IC50. Type of data set: biochemical. How it is done: IC50 was determined for the compounds of the inventions based on data generated in strand transfer assays. The IC50 is a measure of the ability of the compounds tested to inhibit the integration of 3′-processed oligonucleotides by recombinant HIV-1 integrase.
Strand transfer assays were performed essentially as described in Hazuda, D. J.; Felock, P.; Hastings, J. C.; Pramanik, B.; Wolfe, A. J. Virol. 1997, 71, 7005-7011). Donor DNA (1.5 pmol/well), biotinylated on the 5′ end of the strand processed by integrase, was immobilized onto streptavidin-coated microtiter plates. Recombinant integrase (250 ng/well) was assembled onto the immobilized donor oligonucleotide in reaction buffer (20 mM Hepes, pH 7.6, 5 mM B-mercaptoethanol, 50 ug/mL bovine serum albumin) containing 30 mM MnCl2. Excess enzyme was removed, and the complexes were washed extensively prior to the addition of the target DNA substrate. The target DNA (0.75 pmoles/well) substrate was labeled on each 3′ end with FITC. After strand transfer, the FITC-labeled products were detected using an anti-FITC antibody conjugated with alkaline phosphatase (Roche) and a chemiluminescent substrate (Tropix CSPD with Sapphire II enhancer, Applied Biosystems). The assay was performed in a final concentration of 10% DMSO. To specifically evaluate inhibition of strand transfer, compounds were added after assembly, just prior to the addition of the target DNA.
The results of the integrase strand transfer assay are reported as IC50 values. IC50 values were determined using a sigmoidal dose-response equation. The formula used for calculating % inhibition was: % Inhibition=[1-(sample counts/average of positive control)]*100. […] Using GraphPad Prism or ActivityBase (IDBS) software IC50 was determined using following sigmoidal dose-response equation: Y=(A+((B−A)/(1+((C/X)^D))))

A further data set concerns HIV-1 isolate 91US005. The experiment in a line: acute infection assay in PHA-stimulated PBMCs, supernatant RT activity. In kind it is cell-based. To be noted: Human immunodeficiency virus 1, PBMC, 144 h, HIV-1 isolate 91US005, 6 day incubation. On the procedure:
(§2) Acute infection assays using fresh human phytohemagglutinin (PHA)-stimulated peripheral blood mononuclear cells (PBMCs) were carried out. PBMCs were stimulated with IL-2 and infected with one of two wild-type drug-sensitive clinical HIV-1 isolates. The strains HIV-1 used for the infections, 91US005 (primary R5 strain of HIV-1) and 94US33931N, are both Group M, Subtype B viruses. Antiviral activity was determined as a reduction in supernatent reverse transcriptase (RT) activity after a 6 day incubation.

The subject of another data set is HIV-1 isolate 94US33931N. The description is as above. In kind it is cell-based. To be noted: Human immunodeficiency virus 1, PBMC, 144 h, 6 day incubation. How it is done:
as §2

Another data set deals with T2, CYP3A4 (Homo sapiens, UniProt P08684).
T2 construct: the incubation medium contained 0.3 mg/mL human liver microsomes; from tissue; host or cells: human liver microsomes
T2 sequence (P08684 whole entry): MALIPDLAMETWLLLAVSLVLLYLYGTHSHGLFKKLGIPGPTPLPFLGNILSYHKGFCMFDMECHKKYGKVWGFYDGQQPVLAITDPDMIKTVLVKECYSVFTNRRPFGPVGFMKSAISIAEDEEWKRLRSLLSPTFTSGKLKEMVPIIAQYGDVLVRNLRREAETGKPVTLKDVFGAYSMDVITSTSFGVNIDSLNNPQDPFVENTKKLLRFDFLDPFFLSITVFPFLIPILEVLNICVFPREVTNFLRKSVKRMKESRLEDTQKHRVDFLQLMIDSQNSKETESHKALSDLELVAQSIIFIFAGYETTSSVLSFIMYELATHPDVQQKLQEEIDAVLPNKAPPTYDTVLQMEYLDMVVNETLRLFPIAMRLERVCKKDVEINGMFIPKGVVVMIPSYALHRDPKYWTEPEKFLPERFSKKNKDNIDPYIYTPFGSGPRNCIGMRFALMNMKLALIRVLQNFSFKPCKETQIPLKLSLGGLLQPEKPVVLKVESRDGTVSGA
In words: human CYP inhibition in human liver microsomes. To be noted: CYP3A4 (printed CYP34A). Type of data set: in vitro ADME. On the procedure:
(§3) For the human CYP inhibition experiments, the incubation medium contained 0.3 mg/mL human liver microsomes, 100 mM phosphate buffer pH 7.4, 5 mM MgCl2, 1 mM EDTA. The respective substrates for CYP3A4, CYP2C9 and CYP2D6 were added at various concentrations in the presence or absence of the compounds tested. After pre-incubation, the reaction was initiated by the addition of NADPH at final concentration 1 mM. Incubation times were 10, 60 and 15 minutes for CYP3A4, CYP2C9 and CYP2D6, respectively (Walsky R L and Obach R S., Drug Metabolism and Disposition, 2004, 32, 647-660). GraphPad Prism software was used for data analysis.

Another data set concerns the target T3, CYP2C9 (Homo sapiens, UniProt P11712).
T3 construct: the incubation medium contained 0.3 mg/mL human liver microsomes; from tissue; host or cells: human liver microsomes
The experiment in a line: human CYP inhibition in human liver microsomes. Type of data set: in vitro ADME. How it is done:
as §3

Where [6] appears, read: human liver microsomes, 1 mM NADPH and 1 mM UDPGA, read-out: Half-life in HLM (hrs) NADPH/UDPGA (converted).
Where [7] appears, read: human liver microsomes, 1 mM NADPH, read-out: Half-life in HLM (hrs) NADPH (converted).
Setting [8] is: human liver microsomes, 1 mM UDPGA, read-out: Half-life in HLM (hrs) UDPGA (converted).
Setting [9] is: MT-4 cells, wild type NL-4.3, 6 days, MTT.

Where two headings read alike, the source gives them in different places.

T3 sequence (P11712 whole entry): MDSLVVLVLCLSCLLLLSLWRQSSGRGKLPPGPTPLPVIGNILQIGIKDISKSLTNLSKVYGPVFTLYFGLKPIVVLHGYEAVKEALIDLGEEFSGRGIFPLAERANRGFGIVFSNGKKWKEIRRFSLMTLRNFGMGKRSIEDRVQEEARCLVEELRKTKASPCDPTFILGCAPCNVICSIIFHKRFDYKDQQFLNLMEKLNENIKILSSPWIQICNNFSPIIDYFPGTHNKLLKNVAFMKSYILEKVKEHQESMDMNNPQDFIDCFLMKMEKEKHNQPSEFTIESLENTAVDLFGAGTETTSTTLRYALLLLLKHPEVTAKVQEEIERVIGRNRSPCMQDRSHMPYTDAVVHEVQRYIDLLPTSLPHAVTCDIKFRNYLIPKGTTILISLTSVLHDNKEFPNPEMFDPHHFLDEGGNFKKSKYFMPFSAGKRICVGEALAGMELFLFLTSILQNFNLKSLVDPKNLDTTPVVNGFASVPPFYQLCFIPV

Take `Cc1nnc(C(=O)NC(C)(C)c2nc(C(=O)NCc3ccc(F)cc3)c(O)c(=O)n2C)o1` [Raltegravir, reference compound]: the half-life at 1 μM was 11 h in [1] (microsomes, 1 mM NADPH and 1 mM UDPGA, read-out: Half-life in HLM (hrs) NADPH/UDPGA (converted)); 19.7 h in data set [1] (microsomes, 1 mM NADPH, read-out: Half-life in HLM (hrs) NADPH (converted)); 7.03 h in data set [1] (microsomes, 1 mM UDPGA, read-out: Half-life in HLM (hrs) UDPGA (converted)). Besides, the fraction unbound (in general, free concentration divided by total concentration) at 5 hours, 1 uM in [2] (serum) was 0.653; in [3] (serum), 0.133. Moreover, the EC50 (commonly the concentration that produces a half-maximal response) in the data set on NL4.3 virus (read-out: EC50 (uM) 10% FBS) amounted to 0.047 µM; in the data set on NL4.3 virus (read-out: EC50 (uM) 10% FBS + 40% HS) it was 0.064 µM; with wild type NL-4.3, 20 nM.
With `O=C(NCc1ccc(F)cc1)c1cnc(C(=O)NO)c(O)c1CO` [Example 2, N^5-(4-fluorobenzyl)-N^2,3-dihydroxy-4-(hydroxymethyl)pyridine-2,5-dicarboxamide], the “adsorption / PK profile (FIG. 1)” value in [4] is “high adsorption”. Besides, the IC50 (as a rule, the concentration at which inhibition is half-maximal) in data set [5] worked out at 303 nM. Also, the EC50 is 76 nM in the data set on HIV-1 isolate 91US005, 123 nM in the data set on HIV-1 isolate 94US33931N and 358 nM in the data set with wild type NL-4.3 (setting [9]). Besides, the half-life at 1 μM in [1] (setting [6]) is 5.9 h; in data set [1] (setting [7]), 5 h; in data set [1] (setting [8]) it was 16 h. The fraction unbound at 5 hours, 1 uM is 0.681 in data set [2] (10% FBS-RPMI) and 0.155 in data set [3] (human serum (100%)).
Regarding `O=C(NCc1ccc2c(c1)OCO2)c1cnc(C(=O)NOCc2ccccc2)c(OCc2ccccc2)c1CO` [Example 3, N^5-(benzo[d][1,3]dioxol-5-ylmethyl)-N2,3-bis(benzyloxy)-4-(hydroxymethyl)pyridine-2,5-dicarboxamide], the Ki – broadly, the equilibrium dissociation constant of an inhibitor or competing ligand from its target – at CYP3A4 is 587000 nM. For the same compound, the EC50 in the data set with HIV-1 isolate 91US005 is 93 nM; with HIV-1 isolate 94US33931N, 30 nM; in the data set on wild type NL-4.3 (setting [9]), greater than 10000 nM. Further, the half-life at 1 μM in data set [1] (setting [6]) is 1.95 h; in [1] (setting [7]), 6.18 h; in data set [1] (setting [8]), 3.8 h.
For the compound `O=C(NCc1ccc(F)cc1)c1cnc(C(=O)NOCc2ccccc2)c(OCc2ccccc2)c1CO` [Example 1, N^2,3-bis(benzyloxy)-N^5-(4-fluorobenzyl)-4-(hydroxymethyl)pyridine-2,5-dicarboxamide], the figures for the Ki on CYP3A4 and at CYP2C9 were 5100 nM and 63600 nM, respectively. The half-life at 1 μM is 3.9 h in data set [1] (setting [6]), 7.4 h in data set [1] (setting [7]) and 19.7 h in data set [1] (setting [8]). Besides, the results for the fraction unbound at 5 hours, 1 uM in data set [2] (10% FBS-RPMI) and in data set [3] (human serum (100%)) were 0.475 and 0.11, respectively. For the same compound, the “Fold-change with HS” value with NL4.3 virus (EC50 with 40% HS versus 10% FBS) came out at 2.1. Further, the EC50 with NL4.3 virus (10% FBS + 40% HS, p24 ELISA after 6 days, read-out: EC50 (uM) 10% FBS + 40% HS) is 0.481 µM; in the data set with NL4.3 virus (10% FBS, p24 ELISA after 6 days, read-out: EC50 (uM) 10% FBS), 0.227 µM; in the data set with wild type NL-4.3 (setting [9]), greater than 10000 nM.
